Measured values published in PubChem BioAssay AID330 (DTP/NCI, 2004).
Values joined by “and” are separate entries in the source; they are usually repeats but may differ in a detail not shown here. Equal entries are not always repeated. Inconclusive results and toxic doses are left out. The calls were made as follows: active = survival T/C of 150% or more; inactive = T/C below 125% in these data. Square brackets hold non-standard residues; d marks the D form. Peptide text beside a SMILES is read from it. * marks the point of attachment. Cbz = O=C(OCc1ccccc1)*; Nva = CCC[CH](N)C(=O)O

System: P388 leukemia ip, CD2F1 mice, survival T/C
Assay: NCI In Vivo Anticancer Drug Screen. Data for tumor model P388 Leukemia (intraperitoneal) in CD2F1 (CDF1) mice
Settings: endpoint: median survival time, higher = longer survival
Outline: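 Mice carrying the transplanted tumor received test compound or vehicle. Survival was recorded in each group, and the value is the treated-group measurement divided by that of the vehicle-treated control group.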

[1] = dose: 25.0 mg/kg/injection, schedule: Q01DX009 (ip), vehicle: saline with Tween-80
[2] = dose: 50.0 mg/kg/injection, schedule: Q01DX009 (ip), vehicle: saline with Tween-80
[3] = dose: 100.0 mg/kg/injection, schedule: Q01DX009 (ip), vehicle: saline with Tween-80
[4] = dose: 50.0 mg/kg/injection, schedule: Q01DX005 (ip), vehicle: Klucel (hydroxypropylcellulose) (HPC)
[5] = dose: 100.0 mg/kg/injection, schedule: Q01DX005 (ip), vehicle: Klucel (hydroxypropylcellulose) (HPC)
[6] = dose: 200.0 mg/kg/injection, schedule: Q01DX005 (ip), vehicle: Klucel (hydroxypropylcellulose) (HPC)
[7] = dose: 50.0 mg/kg/injection, schedule: Q01DX009 (ip), vehicle: saline
[8] = dose: 12.5 mg/kg/injection, schedule: Q01DX009 (ip), vehicle: saline with Tween-80

Measured: T/C

CN(C)c1nc(N(C)C)n2nc(-c3ccccc3[N+](=O)[O-])nc2n1
inactive: dose: 100.0 mg/kg/injection, schedule: Q04DX003 (ip), vehicle: saline with Tween-80 104 % of control | dose: 200.0 mg/kg/injection, schedule: Q04DX003 (ip), vehicle: saline with Tween-80 96 % of control | dose: 400.0 mg/kg/injection, schedule: Q04DX003 (ip), vehicle: saline with Tween-80 95 % of control

Cc1cc(O)c(NCCCN(C)C)c2c(=O)c3ccccc3sc12
inactive: [1] 97 % of control | [2] 93 % of control | [3] 110 % of control

COc1ccc(N=Nc2c(-c3ccccc3)nn(C(=S)SC)c2-c2ccccc2)cc1
inactive: dose: 100.0 mg/kg/injection, schedule: Q01DX001 (ip), vehicle: saline with Tween-80 92 % of control | dose: 200.0 mg/kg/injection, schedule: Q01DX001 (ip), vehicle: saline with Tween-80 95 % of control | dose: 400.0 mg/kg/injection, schedule: Q01DX001 (ip), vehicle: saline with Tween-80 108 % of control

COc1ccc(N=C(C)c2c(O)n(-c3ccccc3)[nH]c2=O)cc1
inactive: [4] 101 % of control | [5] 104 % of control | [6] 99 % of control

Cc1ccc(C(=O)Nc2ccncc2)cc1
inactive: dose: 6.25 mg/kg/injection, schedule: Q01DX009 (ip), vehicle: Klucel (hydroxypropylcellulose) (HPC) 109 % of control | dose: 12.5 mg/kg/injection, schedule: Q01DX009 (ip), vehicle: Klucel (hydroxypropylcellulose) (HPC) 99 % of control

CCCCCCC(=O)CC(SCC)c1ccccc1 (stereo unspecified)
inactive: [2] 106 % of control | [3] 113 % of control | dose: 200.0 mg/kg/injection, schedule: Q01DX009 (ip), vehicle: saline with Tween-80 114 % of control

CC(C)=CC1C(C(=O)OCc2ccc3c(c2)OCO3)C1(C)C (stereo unspecified)
inactive: [7] 107 % of control | dose: 100.0 mg/kg/injection, schedule: Q01DX009 (ip), vehicle: saline 93 % of control | dose: 200.0 mg/kg/injection, schedule: Q01DX009 (ip), vehicle: saline 99 % of control | dose: 400.0 mg/kg/injection, schedule: Q01DX009 (ip), vehicle: saline 104 % of control

COc1ccc(Cc2cc3c(cc2OC(C)=O)OCO3)cc1
inactive: dose: 50.0 mg/kg/injection, schedule: Q01DX005 (ip), vehicle: saline with Tween-80 100 % of control | dose: 100.0 mg/kg/injection, schedule: Q01DX005 (ip), vehicle: saline with Tween-80 100 % of control | dose: 200.0 mg/kg/injection, schedule: Q01DX005 (ip), vehicle: saline with Tween-80 99 % of control

CCSC(=NC)Nc1ccc(Oc2ccc(Cl)cc2)cc1
inactive: dose: 12.5 mg/kg/injection, schedule: Q01DX005 (ip), vehicle: Klucel (hydroxypropylcellulose) (HPC) 101 % of control and 102 % of control | dose: 25.0 mg/kg/injection, schedule: Q01DX005 (ip), vehicle: Klucel (hydroxypropylcellulose) (HPC) 105 % of control and 106 % of control | [4] 102 % of control and 109 % of control and 123 % of control | [5] 100 % of control and 106 % of control and 107 % of control

COC(=O)C1=CCC[C@H]2C1(C)CCC(C)C21CC(c2ccoc2)OC1=O (stereo partly specified)
inactive: dose: 3.5 mg/kg/injection, schedule: Q01DX005 (ip), vehicle: Klucel (hydroxypropylcellulose) (HPC) 106 % of control | dose: 7.0 mg/kg/injection, schedule: Q01DX005 (ip), vehicle: Klucel (hydroxypropylcellulose) (HPC) 91 % of control | dose: 14.0 mg/kg/injection, schedule: Q01DX005 (ip), vehicle: Klucel (hydroxypropylcellulose) (HPC) 95 % of control | dose: 28.0 mg/kg/injection, schedule: Q01DX005 (ip), vehicle: Klucel (hydroxypropylcellulose) (HPC) 91 % of control | [4] 92 % of control

CCC(C)C(N)C(=O)N1CCCC1C(=O)O (stereo not drawn) (H-Ile-Pro-OH; configuration not given here)
inactive: dose: 60.0 mg/kg/injection, schedule: Q01DX005 (ip), vehicle: saline 98 % of control | dose: 120.0 mg/kg/injection, schedule: Q01DX005 (ip), vehicle: saline 98 % of control | dose: 240.0 mg/kg/injection, schedule: Q01DX005 (ip), vehicle: saline 102 % of control

CCOc1ccc(C2c3ccc(OC)cc3OC(C)(C)C2c2ccccc2)cc1[N+](=O)[O-] (stereo unspecified)
inactive: [4] 101 % of control | [5] 99 % of control | [6] 95 % of control

CC1(c2cccc[n+]2Cc2ccc(Cl)c(Cl)c2)OCCO1
inactive: dose: 12.5 mg/kg/injection, schedule: Q01DX005 (ip), vehicle: saline 100 % of control | dose: 25.0 mg/kg/injection, schedule: Q01DX005 (ip), vehicle: saline 99 % of control

COC(=O)CCCc1ccc(OC)c(OC)c1
inactive: [8] 100 % of control | [1] 92 % of control | [2] 95 % of control | [3] 89 % of control

CC(NC(=O)C(c1ccccc1)c1ccccc1)C(=O)O (stereo unspecified)
inactive: [4] 97 % of control | [5] 107 % of control | [6] 97 % of control

CC1(C)OC(CC(=O)O)C23COC(C(=O)C4(C)C2CCC2(C)C(c5ccoc5)OC(=O)C5OC524)C13 (stereo unspecified)
inactive: dose: 0.75 mg/kg/injection, schedule: Q01DX009 (ip), vehicle: saline + alcohol 106 % of control | dose: 1.5 mg/kg/injection, schedule: Q01DX009 (ip), vehicle: saline + alcohol 99 % of control | dose: 3.0 mg/kg/injection, schedule: Q01DX009 (ip), vehicle: saline + alcohol 101 % of control | dose: 6.0 mg/kg/injection, schedule: Q01DX009 (ip), vehicle: saline + alcohol 101 % of control

CC(=O)C1CCC2=C(C1)C(=O)c1cc3c(-c4ccccc4)oc(-c4ccccc4)c3cc1C2=O (stereo unspecified)
inactive: dose: 7.5 mg/kg/injection, schedule: Q01DX005 (ip), vehicle: Klucel (hydroxypropylcellulose) (HPC) 87 % of control | dose: 15.0 mg/kg/injection, schedule: Q01DX005 (ip), vehicle: Klucel (hydroxypropylcellulose) (HPC) 94 % of control

COc1c(C(C)C)cc2c(c1OC)C13CCCC(C)(C)C1C(OC3=O)C2NC(=O)C(C)N(C)C (stereo unspecified)
inactive: dose: 12.5 mg/kg/injection, schedule: Q01DX009 (ip), vehicle: saline 100 % of control | dose: 25.0 mg/kg/injection, schedule: Q01DX009 (ip), vehicle: saline 98 % of control | [7] 100 % of control

CCOC(=O)C(=CCBr)C(=O)OCC
inactive: dose: 1.56 mg/kg/injection, schedule: Q01DX009 (ip), vehicle: other 105 % of control | dose: 3.13 mg/kg/injection, schedule: Q01DX009 (ip), vehicle: other 110 % of control | dose: 6.25 mg/kg/injection, schedule: Q01DX009 (ip), vehicle: other 118 % of control | dose: 12.5 mg/kg/injection, schedule: Q01DX009 (ip), vehicle: other 106 % of control | dose: 25.0 mg/kg/injection, schedule: Q01DX009 (ip), vehicle: other 102 % of control

CCC12NC(=O)NC1(C)NC(=O)N2 (stereo unspecified)
inactive: dose: 6.25 mg/kg/injection, schedule: Q01DX009 (ip), vehicle: saline with Tween-80 91 % of control | [8] 91 % of control | dose: 16.5 mg/kg/injection, schedule: Q01DX009 (ip), vehicle: saline with Tween-80 100 % of control

CCCC(NC(=O)OCc1ccccc1)C(=O)NC(CC(C)C)C(=O)O (stereo unspecified) (Cbz-[Nva]-Leu-OH; configuration not given here)
inactive: [4] 112 % of control | [5] 100 % of control | [6] 106 % of control

CC1(C)CN=C(NN=C(/C=C/c2ccc(C(F)(F)F)cc2)/C=C/c2ccc(C(F)(F)F)cc2)NC1
inactive: dose: 60.0 mg/kg/injection, schedule: Q01DX005 (ip), vehicle: Klucel (hydroxypropylcellulose) (HPC) 98 % of control | dose: 120.0 mg/kg/injection, schedule: Q01DX005 (ip), vehicle: Klucel (hydroxypropylcellulose) (HPC) 98 % of control

COc1cc(C)c(O)c(C/C=C(\C)CC(=O)[C@H]2[C@]3(C)CCC[C@]3(C)[C@@]23C[C@H](O)C(C)(C)O3)c1
inactive: dose: 8.75 mg/kg/injection, schedule: Q01DX005 (ip), vehicle: saline with Tween-80 95 % of control | dose: 17.5 mg/kg/injection, schedule: Q01DX005 (ip), vehicle: saline with Tween-80 92 % of control | dose: 35.0 mg/kg/injection, schedule: Q01DX005 (ip), vehicle: saline with Tween-80 96 % of control

Nc1ccccc1C(=O)N/N=C/c1cccnc1
inactive: [4] 100 % of control | [5] 98 % of control | [6] 98 % of control
